The source of these data is ChEMBL document CHEMBL1143158, “Tritium radiolabelling of PB28, a potent sigma-2 receptor ligand: pharmacokinetic and pharmacodynamic characterization” (Bioorg Med Chem Lett, 2008).

Test [1] in a line: Displacement of [3H]PB28 from sigma 2 receptor in rat liver membrane. It is filed as cell membranes. (In general: Loss of bound radioactivity is the signal in a displacement assay; it reports binding, not function.)
Test [2] is described as follows: Displacement of [3H]DTG from sigma 2 receptor in rat liver membrane. It is filed as cell membranes.
The species named for test [3] is Rattus norvegicus. Description: Selectivity for rat sigma 2 receptor over rat sigma1 receptor. The following applies: tested as the 3H-labelled form.
Test [4] deals with Sigma non-opioid intracellular receptor 1 (Rattus norvegicus, UniProt Q9R0C9). Description: Binding affinity to sigma 1 receptor in rat liver membrane. The test is classed as cell membranes.
Sequence of Sigma non-opioid intracellular receptor 1 (Q9R0C9 whole entry): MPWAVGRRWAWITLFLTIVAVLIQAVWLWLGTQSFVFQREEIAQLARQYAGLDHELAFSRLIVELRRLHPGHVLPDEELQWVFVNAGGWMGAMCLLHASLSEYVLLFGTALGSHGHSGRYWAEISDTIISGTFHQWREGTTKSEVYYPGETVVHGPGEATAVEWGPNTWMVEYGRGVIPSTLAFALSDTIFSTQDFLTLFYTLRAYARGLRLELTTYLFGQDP
Test [5] can be described thus: Binding affinity to sigma 2 receptor in rat liver membrane by saturation analysis. It is filed as cell membranes.

Consider `O=C(CCCN1CCC(O)(c2ccc(Cl)cc2)CC1)c1ccc(F)cc1` [HALOPERIDOL], for which the Ki in test [1] turned out to be 5.85 nM; in test [2], 7.38 nM.
Turning to `COc1cccc2c1CCCC2CCCN1CCN(C2CCCCC2)CC1` (centres undefined), the Ki in test [1] was 0.57 nM; in test [2], 0.34 nM. Moreover, in test [3], the Selectivity ratio was found to be 40.
As for `Cc1ccccc1NC(=N)Nc1ccccc1C` [DITOLYLGUANIDINE], the Ki in test [1] was 42 nM.
`[3H]C1CCCCC1([3H])N1CCN(CCCC2CCCc3c(OC)cccc32)CC1` (centres undefined) gave a Ki in test [4] of 13.6 nM. Also, the Kd in test [5] came out at 0.12 nM.
In test [5], `[3H]C([3H])([3H])Oc1ccc(C)cc1C(=O)NCCCCN1CCc2cc(OC)c(OC)cc2C1` displayed a Kd of 0.66 nM.

For orientation: Ki means a dissociation constant, usually derived from enzyme kinetics or from competition with a known ligand. A higher Ki goes with lower affinity. As usually defined, the Kd is a measure of binding affinity in units of concentration. Lower therefore signals a tighter complex.
